The values below come from patent US20060263453A1, “Methods and compositions for modulating glutamate dehydrogenase” (priority 2004, published 2006).

SMILES strings stand for the structures.

The assay deals with islets. Kind of assay: [U-14C]-glutamine oxidation in islets. Format: cell-based, rat. Here is the method: In a first experiment, a batch of 100 islets were incubated with glucose-free Krebs-Ringer bicarbonate buffer, as described herein, containing 20 μM EGCG or 20 μM EGC and 2 mM glutamine for 60 minutes. The islets were then incubated in the presence of varying concentrations of BCH (shown in FIG. 7A) for 60 minutes, and for an additional 60 minutes in the presence of 2 mCi [U-^14C]-glutamine (NEN-Life Science Products, UK). Next, [U-^14C]-glutamine oxidation in the incubated islets was measured. A trap filter was placed in each tightly sealed glass tube of the perifusion apparatus to collect the ^14CO2 produced by the islets, and the amount of radioactivity was determined by liquid scintillation counting. The results are summarized in FIG. 7A, and are presented as means±S.E. from 4 separate experiments. […] The islets were then incubated in the presence of 10 mM BCH (or no BCH—to measure “baseline” glutamine oxidation levels) for 60 minutes. The islets were then incubated for an additional 60 minutes in the presence of 2 mCi [U-^14C]-glutamine (NEN-Life Science Products, UK). Next, [U-^14C]-glutamine oxidation in the incubated islets was measured, as described above.

`O=C(O[C@@H]1Cc2c(O)cc(O)cc2O[C@@H]1c1cc(O)c(O)c(O)c1)c1cc(O)c(O)c(O)c1` [EGCG, (2R,3R)-2-(3,4,5-Trihydroxyphenyl)-3,4-dihydro-1 (2H)-benzopyran-3,5,7-triol 3-(3,4,5-trihydroxybenzoate)]: under “20 μM, 2 mM glutamine, FIG. 7A”, the “block of BCH stimulation of glutaminolysis (glutamine oxidation)” value was “completely blocked”. Also, the “effect on basal levels of glutamine oxidation” value (3 mM glutamine, no BCH, FIG. 7D) is on record as “does not have an effect”. Besides, the “effect on 10 mM BCH-stimulated glutamine oxidation” value (3 mM glutamine, FIG. 7B, 7C) was “inhibits glutamine oxidation in a dose-dependent manner”. For the same compound, where the note is “10 mM BCH, 3 mM glutamine, FIG. 7B”, the “concentration of maximal effects on glutamine oxidation” value was “approximately 20 μM”.
